In BindingDB's records for patent US11897867 (Bayer Aktiengesellschaft, 2024):
pIC50: −log10 of the molar value.

How the values were obtained:
[1] = target: cGMP-inhibited 3',5'-cyclic phosphodiesterase 3A (Homo sapiens, UniProt Q14432); assay: PDE3A Enzyme Inhibition
Protocol: (§1) The commercially available 3H-cAMP Scintillation Proximity Assay (SPA, Perkin Elmer) system was used for enzyme inhibition studies. For the determination of the in vitro effect of test substances on the PDE3A reactions 2 μl of the respective test compound solution in DMSO (serial dilutions) were is placed in wells of microtiter plates (Isoplate-96/200W; Perkin Elmer). 50 μl of a dilution of PDE3A cell extract from Sf9 cells overexpressing human full length PDE3A (SB Drug Discovery, UK) in buffer A (50 mM Tris/HCl pH 7.5, 8.3 mM MgCl2, 1.7 mM EDTA, 0.2% BSA) was added. The dilution of the PDE3A cell extract was chosen such that the reaction kinetics was linear and less than 70% of the substrate was consumed (typical dilution 1:5000). The reaction was started by addition of 50 μl (0.025 μCi) of 1:2000 in buffer A w/o BSA diluted substrate [8-3H] adenosine 3′,5′-cyclic phosphate (1 μCi/μl; Perkin Elmer). After incubation at room temperature for 60 min, the reaction was stopped by addition of 25 μl of a suspension containing 18 mg/ml yttrium scintillation proximity beads (Perkin Elmer) in water. The microtiter plates were sealed and measured in a Microbeta scintillation counter (PerkinElmer Wallac). IC50 values were determined from sigmoidal curves by plotting percentage PDE3A activity vs log compound concentration.

[2] = target: cGMP-inhibited 3',5'-cyclic phosphodiesterase 3B (Homo sapiens, UniProt Q13370); assay: PDE3B Enzyme Inhibition
Protocol: as §1, with “PDE3B” for “PDE3A”, “were” for “were is”, “1:6000).” for “1:5000).”

cGMP-inhibited 3',5'-cyclic phosphodiesterase 3A, sequence (Q14432 whole entry): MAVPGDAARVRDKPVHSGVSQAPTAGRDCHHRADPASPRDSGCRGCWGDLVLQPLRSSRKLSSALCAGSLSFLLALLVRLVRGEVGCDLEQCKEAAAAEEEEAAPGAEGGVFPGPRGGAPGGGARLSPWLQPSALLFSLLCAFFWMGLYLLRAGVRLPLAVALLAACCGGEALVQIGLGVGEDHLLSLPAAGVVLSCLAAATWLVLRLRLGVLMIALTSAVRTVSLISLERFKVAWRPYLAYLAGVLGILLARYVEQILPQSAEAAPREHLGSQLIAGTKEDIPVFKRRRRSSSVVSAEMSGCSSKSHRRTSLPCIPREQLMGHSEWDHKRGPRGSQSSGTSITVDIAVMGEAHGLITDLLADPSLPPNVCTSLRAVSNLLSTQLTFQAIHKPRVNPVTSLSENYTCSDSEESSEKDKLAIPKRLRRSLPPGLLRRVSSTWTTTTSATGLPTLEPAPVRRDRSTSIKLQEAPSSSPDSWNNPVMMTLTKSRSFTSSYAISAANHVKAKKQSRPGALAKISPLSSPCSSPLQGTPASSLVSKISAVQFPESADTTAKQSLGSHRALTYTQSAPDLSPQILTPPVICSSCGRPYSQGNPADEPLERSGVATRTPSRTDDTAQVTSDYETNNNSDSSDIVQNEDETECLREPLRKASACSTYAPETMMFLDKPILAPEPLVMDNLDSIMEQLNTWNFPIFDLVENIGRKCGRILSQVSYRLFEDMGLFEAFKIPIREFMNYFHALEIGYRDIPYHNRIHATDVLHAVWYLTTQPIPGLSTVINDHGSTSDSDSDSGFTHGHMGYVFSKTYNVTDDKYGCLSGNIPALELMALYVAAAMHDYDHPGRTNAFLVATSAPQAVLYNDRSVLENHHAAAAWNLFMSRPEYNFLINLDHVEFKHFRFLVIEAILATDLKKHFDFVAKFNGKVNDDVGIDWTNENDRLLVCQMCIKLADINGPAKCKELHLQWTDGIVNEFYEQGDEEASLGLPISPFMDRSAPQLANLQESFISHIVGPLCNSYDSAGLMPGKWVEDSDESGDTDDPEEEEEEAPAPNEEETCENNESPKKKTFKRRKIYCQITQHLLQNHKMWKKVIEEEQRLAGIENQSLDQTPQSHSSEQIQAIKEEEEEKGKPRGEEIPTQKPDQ
cGMP-inhibited 3',5'-cyclic phosphodiesterase 3B, sequence (Q13370 whole entry): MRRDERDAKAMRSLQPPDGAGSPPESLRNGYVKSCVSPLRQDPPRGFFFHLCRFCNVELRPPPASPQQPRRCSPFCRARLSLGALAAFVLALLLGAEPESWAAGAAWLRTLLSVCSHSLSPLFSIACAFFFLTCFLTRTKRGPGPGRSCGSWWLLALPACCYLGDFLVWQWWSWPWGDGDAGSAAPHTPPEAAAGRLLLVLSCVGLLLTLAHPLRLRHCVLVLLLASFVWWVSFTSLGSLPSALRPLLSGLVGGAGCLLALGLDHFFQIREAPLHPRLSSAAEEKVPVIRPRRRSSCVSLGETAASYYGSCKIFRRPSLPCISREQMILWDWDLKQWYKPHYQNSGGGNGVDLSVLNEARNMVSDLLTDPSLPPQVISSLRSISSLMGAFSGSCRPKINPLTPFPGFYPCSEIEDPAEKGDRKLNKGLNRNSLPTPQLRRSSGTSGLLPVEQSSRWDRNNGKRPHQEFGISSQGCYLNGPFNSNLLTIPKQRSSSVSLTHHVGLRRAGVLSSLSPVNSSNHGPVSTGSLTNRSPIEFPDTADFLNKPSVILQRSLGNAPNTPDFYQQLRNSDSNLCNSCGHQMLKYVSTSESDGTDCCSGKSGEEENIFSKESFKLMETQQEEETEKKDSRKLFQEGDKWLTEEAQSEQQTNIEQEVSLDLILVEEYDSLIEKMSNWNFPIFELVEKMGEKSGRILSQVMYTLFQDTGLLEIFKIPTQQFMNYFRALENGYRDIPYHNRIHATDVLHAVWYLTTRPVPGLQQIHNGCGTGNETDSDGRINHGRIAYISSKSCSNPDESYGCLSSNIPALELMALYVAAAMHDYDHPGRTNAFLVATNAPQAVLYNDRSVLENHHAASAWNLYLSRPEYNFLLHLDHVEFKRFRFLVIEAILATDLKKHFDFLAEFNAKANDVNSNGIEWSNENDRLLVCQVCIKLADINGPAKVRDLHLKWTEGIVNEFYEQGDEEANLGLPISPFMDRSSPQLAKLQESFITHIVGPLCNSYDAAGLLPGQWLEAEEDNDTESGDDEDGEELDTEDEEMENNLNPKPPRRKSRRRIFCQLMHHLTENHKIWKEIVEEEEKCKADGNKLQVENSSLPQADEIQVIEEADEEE

| pIC50 [2] | SMILES | pIC50 [1] |
| --- | --- | --- |
| 6.96 | O=C1CCC(c2ccc(-c3ccccc3C(F)(F)F)c(F)c2)=NN1 [US11897867, Example 61] | 6.36 |
|  | O=C1CCC(c2ccc(N3CCOCC3)cc2)=NN1 [US11897867, Example 123] | < 6.00 |
